The text below walks through data of PMC11441106 (Journal of medicinal chemistry, 2024).

One data set has as its target D1R (Homo sapiens, UniProt P21728). In words: Tango β-arrestin recruitment at D1R. The class given is cell-based. The settings on record: Tango assay. Background: Arrestin recruitment assays detect the binding of arrestin to an activated receptor.
The next data set can be described thus: in vivo. The settings on record: rat.
The target of a further data set is hERG (Homo sapiens, UniProt Q12809). It is filed as binding.
The target in the next data set is T1, α 1D (Homo sapiens, UniProt P25100).
T1 sequence (P25100 1-572): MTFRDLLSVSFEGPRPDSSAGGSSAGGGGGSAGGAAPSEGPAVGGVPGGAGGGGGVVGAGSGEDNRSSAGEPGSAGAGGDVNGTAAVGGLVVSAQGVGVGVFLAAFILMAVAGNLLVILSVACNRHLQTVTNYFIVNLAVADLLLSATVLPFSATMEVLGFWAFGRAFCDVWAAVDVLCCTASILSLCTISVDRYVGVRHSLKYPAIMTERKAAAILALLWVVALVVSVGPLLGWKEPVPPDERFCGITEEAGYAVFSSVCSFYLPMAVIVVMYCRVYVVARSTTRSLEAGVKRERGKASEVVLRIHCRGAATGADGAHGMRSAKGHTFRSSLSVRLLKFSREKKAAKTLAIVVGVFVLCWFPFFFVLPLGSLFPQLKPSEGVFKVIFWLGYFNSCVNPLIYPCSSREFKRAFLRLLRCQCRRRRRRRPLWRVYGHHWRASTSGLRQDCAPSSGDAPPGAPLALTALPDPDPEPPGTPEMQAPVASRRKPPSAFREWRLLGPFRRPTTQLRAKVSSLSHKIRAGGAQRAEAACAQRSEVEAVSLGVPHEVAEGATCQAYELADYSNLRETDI
In words: NIMH-PDSP broad-panel counter screening. Particulars: read-out: % inhibition (10 μM). For orientation: Counterscreens check selectivity or assay interference.

The next data set has as its system GABAA. Kind of data set: NIMH-PDSP broad-panel counter screening.

Sequence of D1R (P21728 whole entry): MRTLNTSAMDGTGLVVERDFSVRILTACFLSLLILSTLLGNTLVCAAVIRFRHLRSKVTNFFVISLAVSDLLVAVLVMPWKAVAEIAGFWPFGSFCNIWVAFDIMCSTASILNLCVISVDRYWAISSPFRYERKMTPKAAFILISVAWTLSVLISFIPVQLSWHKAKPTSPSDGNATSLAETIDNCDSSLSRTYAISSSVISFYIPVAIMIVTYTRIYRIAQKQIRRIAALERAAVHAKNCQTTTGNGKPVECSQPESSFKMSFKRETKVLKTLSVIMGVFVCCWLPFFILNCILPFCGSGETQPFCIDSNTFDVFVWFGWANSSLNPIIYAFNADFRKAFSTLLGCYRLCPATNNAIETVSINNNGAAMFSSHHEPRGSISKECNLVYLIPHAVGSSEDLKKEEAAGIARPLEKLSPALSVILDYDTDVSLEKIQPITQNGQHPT
Sequence of hERG (Q12809 whole entry): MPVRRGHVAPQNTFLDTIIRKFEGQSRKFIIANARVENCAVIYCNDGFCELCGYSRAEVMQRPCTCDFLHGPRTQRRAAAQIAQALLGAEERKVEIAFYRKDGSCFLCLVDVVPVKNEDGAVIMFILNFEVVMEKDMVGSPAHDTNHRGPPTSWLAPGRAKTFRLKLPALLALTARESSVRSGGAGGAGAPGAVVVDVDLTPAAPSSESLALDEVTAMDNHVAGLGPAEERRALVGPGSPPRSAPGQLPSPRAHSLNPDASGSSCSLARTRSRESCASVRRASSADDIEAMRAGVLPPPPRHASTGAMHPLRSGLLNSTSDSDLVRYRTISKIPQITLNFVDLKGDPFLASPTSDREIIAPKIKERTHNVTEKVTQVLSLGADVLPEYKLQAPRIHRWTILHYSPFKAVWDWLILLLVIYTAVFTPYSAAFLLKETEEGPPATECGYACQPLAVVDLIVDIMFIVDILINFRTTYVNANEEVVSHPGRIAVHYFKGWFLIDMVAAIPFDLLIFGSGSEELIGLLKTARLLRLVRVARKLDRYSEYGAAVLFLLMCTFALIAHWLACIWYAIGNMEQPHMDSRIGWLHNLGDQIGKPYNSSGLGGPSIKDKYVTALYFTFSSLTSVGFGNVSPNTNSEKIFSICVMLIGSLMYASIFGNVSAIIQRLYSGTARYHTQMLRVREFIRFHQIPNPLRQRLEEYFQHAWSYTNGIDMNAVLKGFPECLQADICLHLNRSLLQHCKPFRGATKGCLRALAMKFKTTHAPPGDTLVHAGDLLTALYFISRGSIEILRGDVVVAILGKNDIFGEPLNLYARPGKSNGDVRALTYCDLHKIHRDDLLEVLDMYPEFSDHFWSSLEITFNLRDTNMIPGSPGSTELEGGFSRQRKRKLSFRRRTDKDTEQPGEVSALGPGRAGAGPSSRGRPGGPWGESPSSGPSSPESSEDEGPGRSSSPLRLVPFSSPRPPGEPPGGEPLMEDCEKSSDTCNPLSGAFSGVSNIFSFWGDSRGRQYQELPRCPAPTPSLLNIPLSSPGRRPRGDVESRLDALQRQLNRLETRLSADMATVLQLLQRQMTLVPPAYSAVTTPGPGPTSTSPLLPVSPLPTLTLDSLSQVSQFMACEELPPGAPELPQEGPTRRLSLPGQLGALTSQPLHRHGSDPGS

For the compound `O=C(NCCO)c1cccc2c1CCN2c1cc(Cc2cccc(C(F)(F)F)c2)ccn1` [Compound 4a], on D1R, the “β-arrestin recruitment response at D1R” value was “no response”.
Broadly, the Vd is a proportionality between amount in the body and measured concentration, not a real space. High values mean extensive tissue distribution, low ones confinement near the circulation. One may read the inhibition as the drop in the measured response relative to a control, in per cent. Compound `Cc1c(Nc2cc(Cc3cccc(C(F)(F)F)c3)ccn2)cccc1C(=O)NCCO` [Compound 15b, N-(2-Hydroxyethyl)-2-methyl-3-((4-(3-(trifluoromethyl)benzyl)-pyridin-2-yl)amino)benzamide] displayed a Vd in the data set “in vivo” (male, Sprague-Dawley, plasma, iv, 10 mg/kg) of 1.85 L/kg. The compound also showed a CL in “in vivo” (in vivo, po, 20 mg/kg) of 103 ± 35 mL/min/kg. Moreover, the “hERG inhibition or binding affinity” value on hERG is listed as “did not show inhibition or binding affinity”. Also, at α 1D, the inhibition at 10 µM is -10.5%. The “% inhibition (10 μM)” value with GABAA is recorded as −17.94%.
